Reference: patent US20160223559A1, “TETRAZINE-CONTAINING COMPOUNDS AND SYNTHETIC METHODS THEREOF” (The Regents of the University of California, priority 2015, published 2016)

Experiments:
[1] = Storage and solution stability; assay type: physicochemical; details: stored at −20° C. for several months
[2] = Solubility in DMF:PBS during kinetic measurement; assay type: physicochemical; details: DMF:PBS at DMF concentrations lower than 80%
Description: FIGS. 3A-3B. (E)-3-substituted-6-styryl-s-tetrazine reaction kinetics. FIG. 3A: Reaction scheme of (E)-cyclooct-4-enol and the series of tetrazines for kinetic characterization. Only one isomer is depicted for 15. FIG. 3B: Tetrazine kinetics were determined by reacting 1 mM tetrazine with an excess (10 mM) of (E)-cyclooct-4-enol in 50% DMF, 50% PBS 1×pH 7.4 buffer at 22° C. Second-order rate constants derived from the data are listed, and the corresponding curves for 2b, 2p, and 11 are shown in FIG. 4A. Tetrazine 2p was reacted in 80% DMF, 20% PBS due to its insolubility at lower DMF concentrations.
A NANODROP™ 2000c (Thermo Scientific) equipped with a cuvette reader and a stirrer was used in the kinetic measurements, and the disappearance of the tetrazine peak absorption around 520 nm was measured over time. Tetrazines at 1 mM were reacted with an excess 10 mM (E)-cyclooct-4-enol with the measurements commencing immediately upon (E)-cyclooct-4-enol addition (FIGS. 3A, 4A-4B). Solution conditions were maintained at 1:1 DMF:PBS pH 7.4 buffer (Sigma Life Science), and all the measurements were done at 22° C. room temperature. Tetrazine peak intensity at each time point was adjusted for background by extrapolation, as in the previous section. Tetrazine peak disappearance is shown as points in FIGS. 4A-4B, with the connecting lines resulting from the nonlinear fits made with Prism 6.0c. […]

[3] = Fluorescence assays: fluorogenic turn-on reaction with dienophiles; assay type: physicochemical; details: PBS pH 7.4, excitation at 480 nm
Description: All compounds were purified by HPLC and verified by LC-MS prior to quantitative activation experiments. Stock solutions in methanol were diluted into 1.5 mL of the appropriate solvent in a 1 cm×1 cm quartz cuvette. Measurements of solvent and pre-activation emission spectra for baseline values were made in at least triplicate, prior to addition of trans-cyclooctenol or cyclopropene 4 to initiate the fluorogenic reaction. 3-fold additional excess of trans-cyclooctenol and cyclopropene 4 were added for each fluorogenic reaction. Activation ratios were calculated from the peak emission intensity of the reaction product and the corresponding baseline intensity, and all the intensity data was background subtracted. Integration of the area under the emission intensity curves was used to validate the activation ratios.
Fluorescence emission of 2v, 5, 6 are depicted in FIG. 1A. All three compounds were dissolved in 2 μM phosphate-buffered saline (PBS) at pH 7.4. FIG. 5A depicts fluorescence emission of 2v in 2 μM phosphate-buffered saline (PBS) at pH 7.4. FIG. 5B depicts fluorescence emission of 2w, 7, 8. All three compounds were dissolved in 2 μM EtOH solution. […] FIG. 5C depicts fluorescence emission of 2w in 2 μM EtOH solution. FIG. 5D depicts fluorescence emission of 2x, 9, 10. […] FIG. 5E depicts fluorescence emission of 2x in 2 μM EtOH solution.

[4] = test system: A33 antigens on live LS174T human colon carcinoma cells; assay: Live-cell imaging of TCO-antibody pretargeted cells; assay type: cell-based; details: 5 μM probe, 30 minutes
Description: FIGS 1A-1D. Depicted in FIG. 1A are fluorescence emission spectra for compound 2v (lowest line) and compound 5 (middle line) and 6 (upper line) in PBS; excitation at 480 nm. FIG. 1B: Figure depicts equimolar solutions of compound 6 and 2v under excitation by a handheld UV lamp. FIGS. 1C-1D: Figures depict Live-cell imaging of LS174T cells. FIG. 1C: Cells were incubated (t=1 h) with 200 nM TCO-conjugated A33 antibodies, washed, and then imaged 30 minutes after the addition of 5 μM 2v. FIG. 1D: Cells lacking TCO were treated with 5 μM 2v for 30 minutes. Scale bar=[…] for both FIGS. 1C and 1D.
Cell culture and labeling. LS174T cells were grown in DMEM media supplemented with 10% fetal bovine serum, 1% L-glutamine, 1% penicillin/streptomycin. Cells were incubated in 5.0% carbon dioxide, 95% humidity at 37° C. The cells were grown in a T-75 tissue culture flask and seeded on a Lab-Tek II chamber slide two days prior to the experiment. A33 antibody (R&D Systems, MN) was modified by incubation with 50 equivalents of trans-cyclooctene NHS ester for 2 hours at room temperature. The A33 antibody was washed three times with 0.1M sodium bicarbonate buffer pH 8.3 using a 30 kDa spin filter before adding the antibody to the cells at a final concentration of 200 nM for 1 hour.
Image acquisition. […]

SMILES: Cc1nnc(CCOS(C)(=O)=O)nn1 [Cmpd 1a]
- storage stability [1]: without noticeable decomposition

SMILES: C(=C\c1nnc(/C=C/c2ccccc2)nn1)/c1ccccc1 [Cmpd 2p]
- solubility [2]: insolubility

SMILES: Cc1nnc(/C=C/c2ccc(C(=O)O)c(-c3c4cc(F)c(=O)cc-4oc4cc(O)c(F)cc34)c2)nn1 [Cmpd 2v]
- increase in fluorescence intensity (turn-on) ([3]; after reaction with a TCO): 400 fold
- increase in fluorescence intensity (turn-on) ([3]; after reaction with a cyclopropene): 135 fold
- background staining ([4]; cells lacking targeted dienophile): negligible background staining
- confocal imaging of targeted dienophiles ([4]; cells pretargeted with 200 nM TCO-conjugated A33 antibodies): readily revealed the location of targeted dienophiles
